Key:
HMC1.1 cells (KIT V560G) = details: proliferation, Figure 2A and reference values; ref de Jong and Zon, 2005; Guo et al., 2007; Kampa-Shittenhelm et al., 2013; cited from earlier work
purified FLT3 WT = molecular target: T1, purified FLT3 WT (Homo sapiens, UniProt P36888); assay: Radiolabeled purified kinase assay (Figure 1B)
T1 sequence (P36888 27-993): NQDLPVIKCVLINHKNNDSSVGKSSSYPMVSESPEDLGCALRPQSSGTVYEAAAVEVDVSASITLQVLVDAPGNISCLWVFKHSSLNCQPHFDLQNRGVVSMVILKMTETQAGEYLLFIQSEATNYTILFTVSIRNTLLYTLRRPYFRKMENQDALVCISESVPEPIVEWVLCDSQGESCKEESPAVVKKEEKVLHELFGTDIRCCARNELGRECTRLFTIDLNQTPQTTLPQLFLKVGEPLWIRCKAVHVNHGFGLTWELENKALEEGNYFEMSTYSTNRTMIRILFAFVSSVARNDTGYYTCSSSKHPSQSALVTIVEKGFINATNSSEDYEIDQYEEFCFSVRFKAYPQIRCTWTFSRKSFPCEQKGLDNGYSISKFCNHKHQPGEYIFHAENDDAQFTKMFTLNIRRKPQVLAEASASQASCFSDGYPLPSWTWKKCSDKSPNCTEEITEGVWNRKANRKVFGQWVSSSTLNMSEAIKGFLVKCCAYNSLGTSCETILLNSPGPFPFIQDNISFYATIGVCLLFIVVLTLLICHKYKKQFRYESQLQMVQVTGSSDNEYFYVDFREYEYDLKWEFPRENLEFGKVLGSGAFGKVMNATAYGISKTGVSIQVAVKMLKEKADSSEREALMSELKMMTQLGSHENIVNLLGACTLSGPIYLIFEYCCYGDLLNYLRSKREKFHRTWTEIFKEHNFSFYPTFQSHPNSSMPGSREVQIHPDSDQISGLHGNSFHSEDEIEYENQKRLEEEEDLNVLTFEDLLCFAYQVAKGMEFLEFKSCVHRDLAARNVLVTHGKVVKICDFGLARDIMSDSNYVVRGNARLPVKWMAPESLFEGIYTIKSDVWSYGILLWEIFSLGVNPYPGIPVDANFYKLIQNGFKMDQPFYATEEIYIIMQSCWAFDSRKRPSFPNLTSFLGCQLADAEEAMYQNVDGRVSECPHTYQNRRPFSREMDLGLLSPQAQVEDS

KIT = KIT (Homo sapiens, UniProt P10721); assay: Reaction Biology Corp kinase assay at Km-ATP (Figure 1C), KIT
Chain of KIT (P10721 26-976): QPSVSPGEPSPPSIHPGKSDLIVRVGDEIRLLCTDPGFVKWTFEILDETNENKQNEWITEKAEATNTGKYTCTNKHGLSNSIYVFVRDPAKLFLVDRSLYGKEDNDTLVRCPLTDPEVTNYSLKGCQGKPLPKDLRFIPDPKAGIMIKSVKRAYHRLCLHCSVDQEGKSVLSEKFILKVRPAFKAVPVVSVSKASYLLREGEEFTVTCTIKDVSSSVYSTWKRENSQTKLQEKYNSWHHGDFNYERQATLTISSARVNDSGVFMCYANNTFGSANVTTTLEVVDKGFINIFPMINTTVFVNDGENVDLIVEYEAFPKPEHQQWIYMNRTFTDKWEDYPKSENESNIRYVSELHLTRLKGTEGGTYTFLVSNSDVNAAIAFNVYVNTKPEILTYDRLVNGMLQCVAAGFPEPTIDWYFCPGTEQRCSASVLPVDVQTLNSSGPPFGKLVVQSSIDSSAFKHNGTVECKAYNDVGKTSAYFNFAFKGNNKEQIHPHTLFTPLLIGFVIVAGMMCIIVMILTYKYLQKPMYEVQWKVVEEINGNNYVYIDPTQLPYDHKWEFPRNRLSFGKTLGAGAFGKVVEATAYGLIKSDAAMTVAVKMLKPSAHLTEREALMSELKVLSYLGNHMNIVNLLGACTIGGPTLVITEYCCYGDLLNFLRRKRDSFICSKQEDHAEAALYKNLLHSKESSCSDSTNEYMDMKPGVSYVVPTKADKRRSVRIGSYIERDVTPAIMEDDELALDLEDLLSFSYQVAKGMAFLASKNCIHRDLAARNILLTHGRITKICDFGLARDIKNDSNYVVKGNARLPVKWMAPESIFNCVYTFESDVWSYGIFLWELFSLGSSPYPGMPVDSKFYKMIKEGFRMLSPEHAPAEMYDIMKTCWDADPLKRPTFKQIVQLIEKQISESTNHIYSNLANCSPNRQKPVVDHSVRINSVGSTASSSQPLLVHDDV

FLT3 = molecular target: T2, FLT3 (Homo sapiens, UniProt P36888); assay: Reaction Biology Corp kinase assay at Km-ATP (Figure 1C), FLT3
T2 sequence (P36888 27-993): T1 sequence (P36888 27-993)

CSF1R = CSF1R (Homo sapiens, UniProt P07333); assay: Reaction Biology Corp kinase assay at Km-ATP (Figure 1C), CSF1R
Chain of CSF1R (P07333 20-972): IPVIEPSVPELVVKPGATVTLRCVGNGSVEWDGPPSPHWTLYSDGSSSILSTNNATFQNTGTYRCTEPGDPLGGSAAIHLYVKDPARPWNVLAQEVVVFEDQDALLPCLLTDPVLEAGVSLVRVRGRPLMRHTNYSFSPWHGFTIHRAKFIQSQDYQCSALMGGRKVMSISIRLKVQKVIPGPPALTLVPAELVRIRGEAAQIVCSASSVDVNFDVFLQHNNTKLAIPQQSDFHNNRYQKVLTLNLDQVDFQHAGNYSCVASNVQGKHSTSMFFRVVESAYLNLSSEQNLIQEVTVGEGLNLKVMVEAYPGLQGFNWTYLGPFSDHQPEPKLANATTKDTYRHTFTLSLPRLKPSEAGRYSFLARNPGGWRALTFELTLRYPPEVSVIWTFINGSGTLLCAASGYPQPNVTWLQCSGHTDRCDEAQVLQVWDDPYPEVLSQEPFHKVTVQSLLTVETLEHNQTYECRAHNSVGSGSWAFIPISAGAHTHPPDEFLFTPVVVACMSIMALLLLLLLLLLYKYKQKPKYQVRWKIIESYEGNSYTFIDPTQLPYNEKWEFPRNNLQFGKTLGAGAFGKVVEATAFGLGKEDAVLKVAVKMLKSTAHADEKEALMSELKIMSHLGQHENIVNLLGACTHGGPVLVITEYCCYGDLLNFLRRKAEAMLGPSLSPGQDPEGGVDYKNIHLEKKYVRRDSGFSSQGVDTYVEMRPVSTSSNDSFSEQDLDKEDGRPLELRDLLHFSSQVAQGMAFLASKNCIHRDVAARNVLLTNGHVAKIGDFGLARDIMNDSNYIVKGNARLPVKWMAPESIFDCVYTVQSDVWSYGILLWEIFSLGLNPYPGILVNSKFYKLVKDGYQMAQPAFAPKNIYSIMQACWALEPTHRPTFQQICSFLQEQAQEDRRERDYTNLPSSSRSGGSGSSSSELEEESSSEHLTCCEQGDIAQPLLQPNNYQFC

PDGFRα = PDGFRα (Homo sapiens, UniProt P16234); assay: Reaction Biology Corp kinase assay at Km-ATP (Figure 1C), PDGFRα
Chain of PDGFRα (P16234 24-1089): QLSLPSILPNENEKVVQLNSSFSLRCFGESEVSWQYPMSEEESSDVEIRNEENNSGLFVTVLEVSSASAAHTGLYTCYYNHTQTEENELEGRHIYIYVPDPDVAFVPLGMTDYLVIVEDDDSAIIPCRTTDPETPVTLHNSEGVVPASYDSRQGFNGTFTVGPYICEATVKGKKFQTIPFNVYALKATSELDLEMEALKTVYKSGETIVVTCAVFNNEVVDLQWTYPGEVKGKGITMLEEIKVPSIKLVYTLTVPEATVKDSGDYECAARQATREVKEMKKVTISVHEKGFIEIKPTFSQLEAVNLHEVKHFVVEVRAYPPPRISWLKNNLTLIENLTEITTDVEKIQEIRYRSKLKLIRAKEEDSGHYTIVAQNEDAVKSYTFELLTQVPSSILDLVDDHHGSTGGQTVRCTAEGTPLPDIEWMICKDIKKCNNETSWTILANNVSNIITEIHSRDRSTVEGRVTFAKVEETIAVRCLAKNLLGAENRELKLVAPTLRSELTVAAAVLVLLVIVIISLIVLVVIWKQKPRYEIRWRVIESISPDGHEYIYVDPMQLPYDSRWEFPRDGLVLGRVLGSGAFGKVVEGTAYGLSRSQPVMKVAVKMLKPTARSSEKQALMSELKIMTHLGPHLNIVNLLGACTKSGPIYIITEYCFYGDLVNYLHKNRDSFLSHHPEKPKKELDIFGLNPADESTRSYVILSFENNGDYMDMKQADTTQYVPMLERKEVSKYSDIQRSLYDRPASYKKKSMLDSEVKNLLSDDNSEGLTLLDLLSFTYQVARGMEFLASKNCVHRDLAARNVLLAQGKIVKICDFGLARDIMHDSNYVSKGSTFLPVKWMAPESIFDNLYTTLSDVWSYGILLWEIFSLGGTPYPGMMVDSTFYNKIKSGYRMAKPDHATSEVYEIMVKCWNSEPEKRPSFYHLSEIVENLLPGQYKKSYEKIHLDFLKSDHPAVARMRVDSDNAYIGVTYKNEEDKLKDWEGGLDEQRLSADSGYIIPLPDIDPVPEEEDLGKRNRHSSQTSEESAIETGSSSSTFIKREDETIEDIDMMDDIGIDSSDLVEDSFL

PDGFRβ = PDGFRβ (Homo sapiens, UniProt P09619); assay: Reaction Biology Corp kinase assay at Km-ATP (Figure 1C), PDGFRβ
Chain of PDGFRβ (P09619 33-1106): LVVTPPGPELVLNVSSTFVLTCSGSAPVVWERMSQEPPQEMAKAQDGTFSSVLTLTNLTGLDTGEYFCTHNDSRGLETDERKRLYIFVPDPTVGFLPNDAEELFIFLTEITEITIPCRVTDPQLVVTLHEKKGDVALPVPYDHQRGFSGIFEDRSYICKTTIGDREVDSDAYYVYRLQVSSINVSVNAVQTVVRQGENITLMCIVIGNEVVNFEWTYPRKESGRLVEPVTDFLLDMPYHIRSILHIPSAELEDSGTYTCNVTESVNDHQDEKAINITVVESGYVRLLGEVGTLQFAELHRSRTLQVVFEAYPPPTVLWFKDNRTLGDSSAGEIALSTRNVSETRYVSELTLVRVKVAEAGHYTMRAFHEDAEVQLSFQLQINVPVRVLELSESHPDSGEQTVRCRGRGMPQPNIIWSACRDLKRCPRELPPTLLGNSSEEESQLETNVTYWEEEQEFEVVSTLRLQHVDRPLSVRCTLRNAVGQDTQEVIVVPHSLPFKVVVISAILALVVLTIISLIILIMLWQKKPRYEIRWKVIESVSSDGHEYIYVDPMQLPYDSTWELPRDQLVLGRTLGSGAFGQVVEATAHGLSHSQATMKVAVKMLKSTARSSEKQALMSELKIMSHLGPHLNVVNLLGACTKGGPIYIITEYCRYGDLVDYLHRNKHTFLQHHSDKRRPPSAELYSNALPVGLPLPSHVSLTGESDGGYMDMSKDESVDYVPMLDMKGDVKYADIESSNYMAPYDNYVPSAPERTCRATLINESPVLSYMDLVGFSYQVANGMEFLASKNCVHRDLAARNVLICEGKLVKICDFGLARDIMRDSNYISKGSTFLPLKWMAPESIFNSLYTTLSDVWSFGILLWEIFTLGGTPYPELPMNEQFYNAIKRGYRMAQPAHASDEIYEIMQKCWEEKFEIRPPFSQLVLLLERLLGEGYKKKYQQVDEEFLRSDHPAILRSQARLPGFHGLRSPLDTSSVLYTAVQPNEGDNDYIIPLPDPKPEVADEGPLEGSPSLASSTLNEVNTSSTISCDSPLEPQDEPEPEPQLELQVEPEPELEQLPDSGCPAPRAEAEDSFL

## Cc1ccc(C(=O)Nc2ccc(CN3CCN(C)CC3)c(C(F)(F)F)c2)cc1C#Cc1cnc2cccnn12 [Ponatinib]
HMC1.1 cells (KIT V560G)
  inhibition of FLT3- versus KIT-driven cell lines: equipotent inhibition of FLT3 and KIT-driven cell lines

## CNC(=O)c1cc(Oc2ccc(NC(=O)Nc3ccc(Cl)c(C(F)(F)F)c3)cc2)ccn1 [Sorafenib]
HMC1.1 cells (KIT V560G)
  inhibition of FLT3- versus KIT-driven cell lines: equipotent inhibition of FLT3 and KIT-driven cell lines

## CC(C)C[C@@H]1NC(=O)c2c1c1c3ccccc3[nH]c1c1[nH]c3ccccc3c21 [Star 1]
Purified FLT3 WT
  IC50: > 10 µM

## CCC[C@@H]1NC(=O)c2c1c1c3ccccc3[nH]c1c1[nH]c3ccccc3c21 [Star 3]
Purified FLT3 WT
  IC50: > 10 µM

## CCCC[C@@H]1NC(=O)c2c1c1c3ccccc3[nH]c1c1[nH]c3ccccc3c21 [Star 4]
Purified FLT3 WT
  IC50: > 10 µM

## CC(C)[C@@H]1NC(=O)c2c1c1c3ccccc3[nH]c1c1[nH]c3ccccc3c21 [Star 6]
Purified FLT3 WT
  IC50: 2 µM

## CC(C)(C)[C@@H]1NC(=O)c2c1c1c3ccccc3[nH]c1c1[nH]c3ccccc3c21 [Star 7]
Purified FLT3 WT
  IC50: > 10 µM

## CC[C@@H]1NC(=O)c2c1c1c3ccccc3[nH]c1c1[nH]c3ccccc3c21 [Star 8]
Purified FLT3 WT
  IC50: 2 µM

## C#CC[C@@H]1NC(=O)c2c1c1c3ccccc3[nH]c1c1[nH]c3ccccc3c21 [Star 9]
Purified FLT3 WT
  IC50: > 10 µM

## C[C@@H]1NC(=O)c2c1c1c3ccccc3[nH]c1c1[nH]c3ccccc3c21 [Star 22]
Purified FLT3 WT
  IC50: 0.193 ± 0.028 µM

## C[C@@H]1NC(=O)c2c1c1c3ccccc3n(CCCCN)c1c1[nH]c3ccccc3c21 [Star 23]
Purified FLT3 WT
  IC50: 0.01 ± 0.004 µM
KIT
  IC50: 6.55 µM
KIT; ratio of Figure 1C IC50s
  KIT/FLT3 IC50 ratio: 728
FLT3
  IC50: 0.009 ± 0.001 µM
CSF1R
  IC50: > 10 µM
PDGFRα
  IC50: 2 µM
PDGFRβ
  IC50: 2.8 µM

## C[C@@H]1NC(=O)c2c1c1c3ccccc3[nH]c1c1c2c2ccccc2n1CCCN [Star 27-iso]
Purified FLT3 WT
  IC50: 0.015 ± 0.007 µM
